Where two headings read alike, the source gives them in different places.
Tests used:
PAK4 = PAK4 (Homo sapiens, UniProt O96013); test: Z'-LYTE FRET kinase inhibition assay; format: biochemical; design: purchased Invitrogen
Excerpt: […]. […] […].

PAK2 [1] = biological target: T1, PAK2 (Homo sapiens, UniProt Q13177); test: Z'-LYTE FRET kinase inhibition assay; format: biochemical; design: PAK2 (full length); purchased Invitrogen PV4565
Protocol: The activity/inhibition of human recombinant PAK1 (kinase domain) or PAK2 (full length) was determined by measuring the phosphorylation of a FRET peptide substrate (Ser/Thr19) labeled with Coumarin and Fluorescein using Z′-LYTE™ assay (Invitrogen). The 10 μL assay mixtures contained 50 mM HEPES (pH 7.5), 0.01% Brij-35, 10 mM MgCl2, 1 mM EGTA, 2 μM FRET peptide substrate, and PAK enzyme (20 pM PAK1; 50 pM PAK2). Incubations were carried out at 22° C. in black polypropylene 384-well plates (Corning Costar). Prior to the assay, enzyme, FRET peptide substrate and serially diluted test compounds were preincubated together in assay buffer (7.5 μL) for 10 minutes, and the assay was initiated by the addition of 2.5 μL assay buffer containing 4×ATP (160 μM PAK1; 480 μM PAK2). Following the 60-minute incubation, the assay mixtures were quenched by the addition of 5 μL of Z′-LYTE™ development reagent, and 1 hour later the emissions of Coumarin (445 nm) and Fluorescein (520 nm) were determined after excitation at 400 nm using an Envision plate reader (Perkin Elmer). […].

PAK1 [2] = biological target: T2, PAK1 (Homo sapiens, UniProt Q13153); test: Z'-LYTE FRET kinase inhibition assay; format: biochemical; design: human recombinant PAK1 (kinase domain); purchased Invitrogen PV2830; conditions: for PAK1 inhibitory activity and selectivity of conjugate: vs PAK2 and PAK4
Protocol: The activity/inhibition of human recombinant PAK1 (kinase domain) or PAK2 (full length) was determined by measuring the phosphorylation of a FRET peptide substrate (Ser/Thr19) labeled with Coumarin and Fluorescein using Z′-LYTE™ assay (Invitrogen). The 10 μL assay mixtures contained 50 mM HEPES (pH 7.5), 0.01% Brij-35, 10 mM MgCl2, 1 mM EGTA, 2 μM FRET peptide substrate, and PAK enzyme (20 pM PAK1; 50 pM PAK2). Incubations were carried out at 22° C. in black polypropylene 384-well plates (Corning Costar). […] Following the 60-minute incubation, the assay mixtures were quenched by the addition of 5 μL of Z′-LYTE™ development reagent, and 1 hour later the emissions of Coumarin (445 nm) and Fluorescein (520 nm) were determined after excitation at 400 nm using an Envision plate reader (Perkin Elmer).
Target sequence in this assay (Q13153 270-521 limits assumed): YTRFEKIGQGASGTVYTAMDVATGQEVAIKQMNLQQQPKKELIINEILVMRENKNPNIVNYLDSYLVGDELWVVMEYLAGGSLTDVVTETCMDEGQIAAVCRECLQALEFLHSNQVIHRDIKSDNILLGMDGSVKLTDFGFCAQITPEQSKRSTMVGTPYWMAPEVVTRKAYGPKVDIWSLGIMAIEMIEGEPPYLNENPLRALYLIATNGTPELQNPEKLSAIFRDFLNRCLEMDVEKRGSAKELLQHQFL

MCF7 cells = test: Cell proliferation, MTT assay; format: cell-based; conditions: for Effect on cell proliferation: MCF7 cells; for EC50: Homo sapiens, MCF7, read-out: EC50, anti-proliferative, MCF7 cells
Protocol: (§1) Cell proliferation was assessed by MTT assay.
(§2) Cell viability was measured by MTT assay and the half maximal inhibitory concentration (IC50) was calculated using GraphPad Prism. Triplicates were performed for each sample and medium alone was used as a blank.
(§3) The anti-proliferative effects of PAK1 degradation and inhibition were evaluated.

OVCAR3 cells = test: Cell proliferation, MTT assay; format: cell-based; conditions: for Effect on cell proliferation: OVCAR3 cells; for EC50: Homo sapiens, OVCAR-3, read-out: EC50, anti-proliferative, OVCAR3 cells
Protocol: […]. Cell proliferation was assessed by MTT assay. […].
Cells were plated at 2×10^3 cells per well in 96-well plates overnight and treated with various concentrations of Pak degraders for 72 hours. Cell viability was measured by MTT assay and the half maximal inhibitory concentration (IC50) was calculated using GraphPad Prism. Triplicates were performed for each sample and medium alone was used as a blank.
The anti-proliferative effects of PAK1 degradation and inhibition were evaluated. […]. […] […]. […] […].

PAK1 [3] = biological target: T2, PAK1; test: PAK1 degradation in MCF7 and OVCAR3 cells, immunoblot; format: cell-based; design: endogenous in cells; host or cells: MCF7, OVCAR3; conditions: MCF7 and OVCAR3 cells
Protocol: Protein lysates were harvested at the times specified.
Cell lysates were obtained by centrifugation at 13,500 rpm for 15 minutes at 4° C. BCA protein assay (Thermo Scientific) was used to determine protein concentration then equal amounts of total proteins were separated by SDS-PAGE (Bio-Rad) and transferred to PVDF membrane (Thermo Scientific) at 100V for 2 hours. Membranes were blocked in 5% (w/v) non-fat dry milk in tris-buffered saline with 0.1% Tween-20 (TBS-T) for 1 hour and incubated with primary antibody at 4° C. for overnight. Membranes were washed with TBS-T on the next day and incubated with HRP-conjugated secondary antibodies (Millipore) at room temperature for 1 hour and exposed to films after washing.
Target sequence in this assay (Q13153 whole entry, the tested form may be a part): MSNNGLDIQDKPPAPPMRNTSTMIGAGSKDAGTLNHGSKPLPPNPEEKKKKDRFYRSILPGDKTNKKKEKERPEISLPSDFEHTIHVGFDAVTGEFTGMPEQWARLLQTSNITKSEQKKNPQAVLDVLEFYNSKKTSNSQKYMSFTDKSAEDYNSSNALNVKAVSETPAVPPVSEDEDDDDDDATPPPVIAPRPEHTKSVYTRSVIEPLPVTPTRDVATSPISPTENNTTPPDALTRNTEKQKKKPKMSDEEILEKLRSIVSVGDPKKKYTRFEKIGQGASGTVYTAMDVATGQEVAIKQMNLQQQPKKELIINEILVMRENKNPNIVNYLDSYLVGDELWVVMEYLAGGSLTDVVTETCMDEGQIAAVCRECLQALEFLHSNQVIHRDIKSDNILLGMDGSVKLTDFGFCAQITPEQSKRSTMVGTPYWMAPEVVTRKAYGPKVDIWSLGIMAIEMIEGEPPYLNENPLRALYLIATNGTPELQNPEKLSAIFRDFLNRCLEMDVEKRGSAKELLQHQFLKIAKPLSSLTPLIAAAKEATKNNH

PAK2 [4] = biological target: T1, PAK2; test: PAK2 degradation in MCF7 and OVCAR3 cells, immunoblot; format: cell-based; design: due to their high expression of both PAK1 and PAK2; endogenous in cells; host or cells: MCF7, OVCAR3
Protocol: […]. Cells were incubated overnight then treated with various concentrations of Pak degraders alone or together with bortezomib or lenalidomide for 24 hours. Protein lysates were harvested at the times specified.
Cells were washed once in PBS and lysed in RIPA buffer (50 mM Tris-HCl, 150 mM NaCl, 0.25% (w/v) sodium deoxycholate, 1% (w/v) NP-40, pH 7.5) containing protease inhibitor cocktail (Roche) and phosphatase inhibitor cocktail (Roche) for 30 minutes on ice. Cell lysates were obtained by centrifugation at 13,500 rpm for 15 minutes at 4° C. BCA protein assay (Thermo Scientific) was used to determine protein concentration then equal amounts of total proteins were separated by SDS-PAGE (Bio-Rad) and transferred to PVDF membrane (Thermo Scientific) at 100V for 2 hours. Membranes were blocked in 5% (w/v) non-fat dry milk in tris-buffered saline with 0.1% Tween-20 (TBS-T) for 1 hour and incubated with primary antibody at 4° C. for overnight. […]
After verifying that BJG-05-039 retained specificity for PAK1, its degradation activity in cells was characterized. First, the PAK1 degrader was evaluated in the breast cancer cell line MCF7 and the ovarian cancer cell line OVCAR3 due to their high expression of both PAK1 and PAK2 and their known dependence on PAK1 (Prudnikova, et al. (2016) Oncogene 35:2178-2185; Shrestha, et al. (2012) Oncogene 31:3397-3408). […]

Hey A8 cells = test: Cell proliferation, MTT assay; format: cell-based; conditions: HEY A8, read-out: EC50, anti-proliferative
Protocol: as §1, §2, §3

OMM1 cells = test: Cell proliferation, MTT assay; format: cell-based; conditions: OMM-1, read-out: EC50, anti-proliferative
Protocol: as §1, §2, §3

[5] = cited from earlier work
[6] = cited from earlier work; remark: listed apart in the source

T1 sequence (Q13177 whole entry, the tested form may be a part): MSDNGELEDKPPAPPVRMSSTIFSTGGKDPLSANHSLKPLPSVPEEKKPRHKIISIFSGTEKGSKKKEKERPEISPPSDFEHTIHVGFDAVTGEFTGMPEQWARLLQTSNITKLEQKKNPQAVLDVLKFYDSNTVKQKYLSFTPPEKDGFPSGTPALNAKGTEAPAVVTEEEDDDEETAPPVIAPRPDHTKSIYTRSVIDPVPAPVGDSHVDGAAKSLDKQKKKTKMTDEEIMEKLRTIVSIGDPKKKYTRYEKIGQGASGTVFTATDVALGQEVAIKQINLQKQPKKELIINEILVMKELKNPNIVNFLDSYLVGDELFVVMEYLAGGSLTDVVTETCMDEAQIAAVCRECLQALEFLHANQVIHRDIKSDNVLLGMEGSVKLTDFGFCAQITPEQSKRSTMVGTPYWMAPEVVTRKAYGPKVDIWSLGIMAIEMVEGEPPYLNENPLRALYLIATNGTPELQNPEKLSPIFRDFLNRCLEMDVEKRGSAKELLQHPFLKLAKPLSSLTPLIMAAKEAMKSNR
PAK4, sequence (O96013 whole entry): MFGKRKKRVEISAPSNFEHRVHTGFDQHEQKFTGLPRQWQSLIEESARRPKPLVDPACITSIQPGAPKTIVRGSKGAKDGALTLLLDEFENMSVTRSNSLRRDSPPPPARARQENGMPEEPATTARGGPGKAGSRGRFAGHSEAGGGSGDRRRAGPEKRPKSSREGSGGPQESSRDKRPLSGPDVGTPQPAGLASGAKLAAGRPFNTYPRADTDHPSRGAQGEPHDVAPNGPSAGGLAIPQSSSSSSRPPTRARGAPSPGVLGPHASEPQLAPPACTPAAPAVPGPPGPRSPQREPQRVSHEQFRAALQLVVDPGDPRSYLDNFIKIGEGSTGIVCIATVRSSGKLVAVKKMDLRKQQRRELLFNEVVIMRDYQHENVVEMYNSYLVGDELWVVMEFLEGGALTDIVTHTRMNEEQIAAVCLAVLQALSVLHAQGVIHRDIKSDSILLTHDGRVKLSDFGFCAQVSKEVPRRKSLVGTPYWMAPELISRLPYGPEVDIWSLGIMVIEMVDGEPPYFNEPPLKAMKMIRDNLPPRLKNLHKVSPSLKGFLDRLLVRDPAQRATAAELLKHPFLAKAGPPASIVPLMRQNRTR

SMILES	IC50 (PAK4) [µM]	IC50 (PAK2 [1]) [µM]	IC50 (PAK1 [2]) [µM]	further results
Cc1ccc(CO)cc1N(Cc1ccccc1C#N)c1nc(Nc2ccc(N3CCN(C(=O)CCOCCOCCNc4cccc5c4C(=O)N(C4CCC(=O)NC4=O)C5=O)CC3)c(S(C)(=O)=O)c2)ncc1F (centres unmarked) [BJG-05-094, 2-(((2-((4-(4-(3-(2-(2-((2-(2,6-Dioxopiperidin-3-yl)-1,3-dioxoisoindolin-4-yl)amino)ethoxy)ethoxy)propanoyl)piperazin-1-yl)-3-(methylsulfonyl)phenyl)amino)-5-fluoropyrimidin-4-yl)(5-(hydroxymethyl)-2-methylphenyl)amino)methyl)benzonitrile]			0.103	
Cc1ccc(CO)cc1N(Cc1ccccc1C#N)c1nc(Nc2ccc(N3CCN(CCOCCOCCOCCOCCNc4cccc5c4C(=O)N(C4CCC(=O)NC4=O)C5=O)CC3)c(S(C)(=O)=O)c2)ncc1F (centres unmarked) [BJG-05-095, 2-(((2-((4-(4-(14-((2-(2,6-Dioxopiperidin-3-yl)-1,3-dioxoisoindolin-4-yl)amino)-3,6,9,12-tetraoxatetradecyl)piperazin-1-yl)-3-(methylsulfonyl)phenyl)amino)-5-fluoropyrimidin-4-yl)(5-(hydroxymethyl)-2-methylphenyl)amino)methyl)benzonitrile]			0.0366	
Cc1ccc(CO)cc1N(Cc1ccccc1C#N)c1nc(Nc2ccc(N3CCN(CCOCCOCCNc4cccc5c4C(=O)N(C4CCC(=O)NC4=O)C5=O)CC3)c(S(C)(=O)=O)c2)ncc1F (centres unmarked) [BJG-05-093, 2-(((2-((4-(4-(2-(2-(2-((2-(2,6-Dioxopiperidin-3-yl)-1,3-dioxoisoindolin-4-yl)amino)ethoxy)ethoxy)ethyl)piperazin-1-yl)-3-(methylsulfonyl)phenyl)amino)-5-fluoropyrimidin-4-yl)(5-(hydroxymethyl)-2-methylphenyl)amino)methyl)benzonitrile]			0.0325	
CN1C(=O)CCC(N2C(=O)c3cccc(NCCCCCCCCNC(=O)N4CC[C@H](NC5=Nc6cc(F)ccc6N(CC(F)F)c6ccc(Cl)cc65)C4)c3C2=O)C1=O (stereo partly drawn) [BJG-05-098, (3S)-3-((2-Chloro-5-(2,2-difluoroethyl)-8-fluoro-5H-dibenzo[b,e][1,4]diazepin-11-yl)amino)-N-(8-((2-(J-methyl-2,6-dioxopiperidin-3-yl)-1,3-dioxoisoindolin-4-yl)amino)octyl)pyrrolidine-1-carboxamide]				Effect on cell proliferation (MCF7 cells): did not affect cell proliferation; Effect on cell proliferation (OVCAR3 cells): did not affect cell proliferation; PAK1 degradation (PAK1 [3]): PAK1 degradation was not observed; PAK2 degradation (PAK2 [4]): did not induce degradation of PAK1 or PAK2
CC(C)NC(=O)N1CC[C@H](NC2=Nc3cc(F)ccc3N(CC(F)F)c3ccc(Cl)cc32)C1 [NVS-PAK1-1, reference compound]	> 10			EC50 (Hey A8 cells): 33.6 µM; EC50 (MCF7 cells; first statement of b311): 11.9 µM; EC50 (MCF7 cells; second listing of b311): 11.8 µM; EC50 (OMM1 cells): 12 µM; EC50 (OVCAR3 cells; first statement of b311): 3.68 µM; EC50 (OVCAR3 cells; second listing of b311): 8.9 µM; Half-life in rat liver microsomes [5]: short half-life; In vivo half-life [6]: short in vivo half-life
O=C1CCC(N2C(=O)c3cccc(NCCOCCOCCNC(=O)N4CC[C@H](NC5=Nc6cc(F)ccc6N(CC(F)F)c6ccc(Cl)cc65)C4)c3C2=O)C(=O)N1 (some centres unmarked) [BJG-05-022]	3.86	6.75	1.49	
Nc1cccc2c1CN(C1CCC(=O)NC1=O)C2=O (centres unmarked) [lenalidomide, reference compound]				Effect on cell proliferation (MCF7 cells): lacked significant antiproliferative effects; Effect on cell proliferation (OVCAR3 cells): lacked significant antiproliferative effects

Second part, led by results:

IC50 (PAK4) [µM]	IC50 (PAK2 [1]) [µM]	IC50 (PAK1 [2]) [µM]	SMILES	further results
0.152	0.724	0.432	O=C1CCC(N2C(=O)c3cccc(NCCOCCOCCC(=O)N4CC[C@H](NC5=Nc6cc(F)ccc6N(CC(F)F)c6ccc(Cl)cc65)C4)c3C2=O)C(=O)N1 (some centres unmarked) [BJG-05-014]	PAK1 inhibitory activity and selectivity of conjugate (PAK1 [2]): retained PAK1 inhibitory activity and selectivity
> 10	> 10	> 3.33	O=C(COc1cccc2c1C(=O)N(C1CCC(=O)NC1=O)C2=O)NCCCCCCC(=O)N1CC[C@H](NC2=Nc3cc(F)ccc3N(CC(F)F)c3ccc(Cl)cc32)C1 (some centres unmarked) [BJG-05-018]	
> 10	> 10	6.3	O=C1CCC(N2C(=O)c3cccc(NCCCC(=O)N4CC[C@H](NC5=Nc6cc(F)ccc6N(CC(F)F)c6ccc(Cl)cc65)C4)c3C2=O)C(=O)N1 (some centres unmarked) [BJG-05-019]	
> 10	> 10	0.594	O=C1CCC(N2C(=O)c3cccc(NCCCCCNC(=O)N4CC[C@H](NC5=Nc6cc(F)ccc6N(CC(F)F)c6ccc(Cl)cc65)C4)c3C2=O)C(=O)N1 (some centres unmarked) [BJG-05-027]	PAK1 inhibitory activity and selectivity of conjugate (PAK1 [2]): retained PAK1 inhibitory activity and selectivity
> 10	> 10	> 10	Cc1ncsc1-c1ccc([C@H](C)NC(=O)C2C[C@@H](O)CN2C(=O)[C@@H](NC(=O)CCCCCCCC(=O)N2CC[C@H](NC3=Nc4cc(F)ccc4N(CC(F)F)c4ccc(Cl)cc43)C2)C(C)(C)C)cc1 (some centres unmarked) [BJG-05-020]	
> 1	> 3.33	> 1.11	O=C1CCC(N2C(=O)c3cccc(NCCCCCCC(=O)N4CC[C@H](NC5=Nc6cc(F)ccc6N(CC(F)F)c6ccc(Cl)cc65)C4)c3C2=O)C(=O)N1 (some centres unmarked) [BJG-05-017]	

From patent publication US20250312462A1, “PAK1 DEGRADERS AND METHODS OF USE THEREOF” (INSTITUTE FOR CANCER RESEARCH D/B/A THE RESEARCH INSTITUTE …, priority 2022, published 2025)
